“Also recorded” adds a separate entry of the source.
How the values were obtained:
[1] = Toxicokinetics: robenacoxib concentration in blood by LC-MS/MS; format: in vivo, cat
Protocol: Approximately 0.5 mL of whole blood was collected from animals via the jugular vein and placed in tubes containing K2EDTA. Samples were collected within 30 minutes prior to dosing and at 0.75, and 4 hours postdose on Days 1, 4, 7, 10, 17, 30, and 37. A single 0.5 mL sample was collected from all animals 4 hours postdose on Days 8, 11, 14, 28, 31, and 34. The animals were fasted for predose and 0.75 hour blood collections and were fed 2 to 3 hours after dose administration. Samples were stored frozen (-10 to […]) within approximately 1 hour after collection until analyzed. Day 1 blood samples were inadvertently processed to plasma and therefore not analyzed.
Robenacoxib was quantitatively analyzed in blood using a validated analytical method involving liquid chromatography with tandem mass spectrometry detection (LC-MS/MS) that has been previously describe. Performance of the method was monitored by low, medium and high quality control samples, where inter-run %RSD (relative standard deviation) was 8.3, 7.4, and 5.8, respectively.
Only abbreviated toxicokinetic sampling was performed so as not to interfere with the primary objective of the study. Concentrations below the limit of quantification were considered 0.

[2] = Dissolution of robenacoxib tablets with or without gelatin capsule; format: physicochemical; details: by 40 minutes; tablets whether or not encapsulated in gelatin capsules; data not shown
[3] = test system: healthy adult domestic short-hair cats; parameters: method as in ref 13 = [13]; 13. US Food and Drug Administration Freedom of Information Summary: Original New Animal Drug Application NADA 141–443 (Onsior Robenacoxib Injection Cats) 2015.; details: 10 mg/kg robenacoxib solution for injection for three consecutive days; cited from earlier work
cats [4] = details: in vivo
cats [5] = details: in vivo; remark: listed apart in the source
Protocol: Cageside observations were performed twice daily on all animals for morbidity, mortality, injury, and the availability of food and water. Detailed clinical observations were performed by trained technical staff twice per day beginning on Day − 2. Observations were at least six hours apart with the first occurring 1–2 hours after dose administration. Observations included, but were not limited to eyes, mucus membranes, respiratory system, circulatory system, autonomic and central nervous systems, somatomotor activity and behavior pattern. Body weight was measured on Day − 19 and weekly beginning Day − 14. Individual food consumption was measured daily beginning on Day − 7. Injection sites were evaluated for erythema, edema, heat, and pain response (i.e., vocalization upon palpation using a 3-point Likert scale) on each day of subcutaneous dosing prior to and 7 to 8 hours after dosing and once daily for three days following each dose administration. If any injection site was abnormal at the end of the observation period, additional assessments were carried out until the cat returned to normal or until end of the study.

cats [6] = details: in vivo; remark: listed apart in the source
Protocol: Necropsies were performed in cage order. All animals were euthanized on Day 38 by intramuscular sedation with ketamine followed approximately 30 min later in a different room by an intravenous overdose of sodium pentobarbital solution and exsanguination, under procedures approved by a veterinary pathologist and according to the study site’s standard operating procedures. After a complete post-mortem evaluation, tissue samples were collected for histopathological analysis. Additionally, the following organs were weighed before tissues were collected: adrenal gland, aorta, brain, epididymis, heart, kidney, liver, lung with bronchi, ovary, pituitary, prostate, salivary gland (mandibular), spleen, testis, thymus, thyroid gland (with parathyroid), and uterus with cervix. In order to correct for body weight and size, the ratio of organ weight to body weight and brain weight was calculated for each animal. Tissues, including any gross lesions identified during the necropsy, were fixed in neutral buffered formalin, except the eye including optic nerve and testes were fixed using a modified Davidson’s fixative [36]. Tissue sections were stained with hematoxylin and eosin and evaluated by a board-certified veterinary pathologist. A bone marrow smear was collected from a rib at necropsy and analyzed qualitatively by a board-certified veterinary clinical pathologist.

SMILES: CCc1ccc(Nc2c(F)c(F)cc(F)c2F)c(CC(=O)O)c1 [robenacoxib]
- plasma robenacoxib concentration (mean ± SD) ([1]; 1X, SC 2.0 mg/kg/day, Study Day 8, 4 h postdose): 98.2 ± 60.7 ng/mL
- plasma robenacoxib concentration (mean ± SD) ([1]; 1X, SC 2.0 mg/kg/day, Study Day 10, 0.75 h postdose): 1124.1 ± 325.9 ng/mL
- plasma robenacoxib concentration (mean ± SD) ([1]; 1X, SC 2.0 mg/kg/day, Study Day 10, 4 h postdose): 79.1 ± 51.5 ng/mL
- plasma robenacoxib concentration (mean ± SD) ([1]; 1X, SC 2.0 mg/kg/day, Study Day 28, 4 h postdose): 117.2 ± 86.1 ng/mL
- plasma robenacoxib concentration (mean ± SD) ([1]; 1X, SC 2.0 mg/kg/day, Study Day 30, 0.75 h postdose): 1358.6 ± 254.5 ng/mL
- plasma robenacoxib concentration (mean ± SD) ([1]; 1X, SC 2.0 mg/kg/day, Study Day 30, 4 h postdose): 94.8 ± 68.3 ng/mL
- plasma robenacoxib concentration (mean ± SD) ([1]; 1X, oral ≥2.4 mg/kg/day, Study Day 4, 0.75 h postdose): 2593.1 ± 909.5 ng/mL
- plasma robenacoxib concentration (mean ± SD) ([1]; 1X, oral ≥2.4 mg/kg/day, Study Day 4, 4 h postdose): 22.9 ± 11.6 ng/mL
- plasma robenacoxib concentration (mean ± SD) ([1]; 1X, oral ≥2.4 mg/kg/day, Study Day 7, 0.75 h postdose): 2591.3 ± 875.5 ng/mL
- plasma robenacoxib concentration (mean ± SD) ([1]; 1X, oral ≥2.4 mg/kg/day, Study Day 7, 4 h postdose): 26.9 ± 27.4 ng/mL
- plasma robenacoxib concentration (mean ± SD) ([1]; 1X, oral ≥2.4 mg/kg/day, Study Day 11, 4 h postdose): 34.9 ± 36.2 ng/mL
- plasma robenacoxib concentration (mean ± SD) ([1]; 1X, oral ≥2.4 mg/kg/day, Study Day 14, 4 h postdose): 19.0 ± 7.3 ng/mL
- plasma robenacoxib concentration (mean ± SD) ([1]; 1X, oral ≥2.4 mg/kg/day, Study Day 17, 0.75 h postdose): 2811.3 ± 1502.1 ng/mL
- plasma robenacoxib concentration (mean ± SD) ([1]; 1X, oral ≥2.4 mg/kg/day, Study Day 17, 4 h postdose): 42.7 ± 49.7 ng/mL
- plasma robenacoxib concentration (mean ± SD) ([1]; 1X, oral ≥2.4 mg/kg/day, Study Day 31, 4 h postdose): 27.2 ± 16.0 ng/mL
- plasma robenacoxib concentration (mean ± SD) ([1]; 1X, oral ≥2.4 mg/kg/day, Study Day 34, 4 h postdose): 35.3 ± 28.5 ng/mL
- plasma robenacoxib concentration (mean ± SD) ([1]; 1X, oral ≥2.4 mg/kg/day, Study Day 37, 0.75 h postdose): 2717.6 ± 1589.6 ng/mL
- plasma robenacoxib concentration (mean ± SD) ([1]; 1X, oral ≥2.4 mg/kg/day, Study Day 37, 4 h postdose): 90.4 ± 106.6 ng/mL
- plasma robenacoxib concentration (mean ± SD) ([1]; 2X, SC 4.0 mg/kg/day, Study Day 8, 4 h postdose): 233.6 ± 215.8 ng/mL
- plasma robenacoxib concentration (mean ± SD) ([1]; 2X, SC 4.0 mg/kg/day, Study Day 10, 0.75 h postdose): 1481.3 ± 359.7 ng/mL
- plasma robenacoxib concentration (mean ± SD) ([1]; 2X, SC 4.0 mg/kg/day, Study Day 10, 4 h postdose): 263.1 ± 249.4 ng/mL
- plasma robenacoxib concentration (mean ± SD) ([1]; 2X, SC 4.0 mg/kg/day, Study Day 28, 4 h postdose): 236.6 ± 130.2 ng/mL
- plasma robenacoxib concentration (mean ± SD) ([1]; 2X, SC 4.0 mg/kg/day, Study Day 30, 0.75 h postdose): 1821.6 ± 817.9 ng/mL
- plasma robenacoxib concentration (mean ± SD) ([1]; 2X, SC 4.0 mg/kg/day, Study Day 30, 4 h postdose): 326.0 ± 276.7 ng/mL
- plasma robenacoxib concentration (mean ± SD) ([1]; 2X, oral ≥4.8 mg/kg/day, Study Day 4, 0.75 h postdose): 5177.5 ± 2229.5 ng/mL
- plasma robenacoxib concentration (mean ± SD) ([1]; 2X, oral ≥4.8 mg/kg/day, Study Day 4, 4 h postdose): 54.2 ± 28.5 ng/mL
- plasma robenacoxib concentration (mean ± SD) ([1]; 2X, oral ≥4.8 mg/kg/day, Study Day 7, 0.75 h postdose): 3383.8 ± 1818.8 ng/mL
- plasma robenacoxib concentration (mean ± SD) ([1]; 2X, oral ≥4.8 mg/kg/day, Study Day 7, 4 h postdose): 67.8 ± 58.5 ng/mL
- plasma robenacoxib concentration (mean ± SD) ([1]; 2X, oral ≥4.8 mg/kg/day, Study Day 11, 4 h postdose): 66.6 ± 57.4 ng/mL
- plasma robenacoxib concentration (mean ± SD) ([1]; 2X, oral ≥4.8 mg/kg/day, Study Day 14, 4 h postdose): 53.8 ± 59.0 ng/mL
- plasma robenacoxib concentration (mean ± SD) ([1]; 2X, oral ≥4.8 mg/kg/day, Study Day 17, 0.75 h postdose): 4160.0 ± 1166.0 ng/mL
- plasma robenacoxib concentration (mean ± SD) ([1]; 2X, oral ≥4.8 mg/kg/day, Study Day 17, 4 h postdose): 64.5 ± 54.7 ng/mL
- plasma robenacoxib concentration (mean ± SD) ([1]; 2X, oral ≥4.8 mg/kg/day, Study Day 31, 4 h postdose): 101.5 ± 152.6 ng/mL
- plasma robenacoxib concentration (mean ± SD) ([1]; 2X, oral ≥4.8 mg/kg/day, Study Day 34, 4 h postdose): 92.2 ± 58.5 ng/mL
- plasma robenacoxib concentration (mean ± SD) ([1]; 2X, oral ≥4.8 mg/kg/day, Study Day 37, 0.75 h postdose): 4009.4 ± 1765.2 ng/mL
- plasma robenacoxib concentration (mean ± SD) ([1]; 2X, oral ≥4.8 mg/kg/day, Study Day 37, 4 h postdose): 80.0 ± 62.6 ng/mL
- plasma robenacoxib concentration (mean ± SD) ([1]; 3X, SC 6.0 mg/kg/day, Study Day 8, 4 h postdose): 723.3 ± 250.8 ng/mL
- plasma robenacoxib concentration (mean ± SD) ([1]; 3X, SC 6.0 mg/kg/day, Study Day 10, 0.75 h postdose): 2461.3 ± 1075.8 ng/mL
- plasma robenacoxib concentration (mean ± SD) ([1]; 3X, SC 6.0 mg/kg/day, Study Day 10, 4 h postdose): 390.2 ± 236.2 ng/mL
- plasma robenacoxib concentration (mean ± SD) ([1]; 3X, SC 6.0 mg/kg/day, Study Day 28, 4 h postdose): 394.8 ± 187.7 ng/mL
- plasma robenacoxib concentration (mean ± SD) ([1]; 3X, SC 6.0 mg/kg/day, Study Day 30, 0.75 h postdose): 2878.8 ± 831.4 ng/mL
- plasma robenacoxib concentration (mean ± SD) ([1]; 3X, SC 6.0 mg/kg/day, Study Day 30, 4 h postdose): 418.7 ± 246.2 ng/mL
- plasma robenacoxib concentration (mean ± SD) ([1]; 3X, oral ≥7.2 mg/kg/day, Study Day 4, 0.75 h postdose): 5511.8 ± 3389.8 ng/mL
- plasma robenacoxib concentration (mean ± SD) ([1]; 3X, oral ≥7.2 mg/kg/day, Study Day 4, 4 h postdose): 98.0 ± 48.6 ng/mL
- plasma robenacoxib concentration (mean ± SD) ([1]; 3X, oral ≥7.2 mg/kg/day, Study Day 7, 0.75 h postdose): 7267.5 ± 4006.6 ng/mL
- plasma robenacoxib concentration (mean ± SD) ([1]; 3X, oral ≥7.2 mg/kg/day, Study Day 7, 4 h postdose): 76.2 ± 32.2 ng/mL
- plasma robenacoxib concentration (mean ± SD) ([1]; 3X, oral ≥7.2 mg/kg/day, Study Day 11, 4 h postdose): 99.2 ± 36.3 ng/mL
- plasma robenacoxib concentration (mean ± SD) ([1]; 3X, oral ≥7.2 mg/kg/day, Study Day 14, 4 h postdose): 79.1 ± 38.0 ng/mL
- plasma robenacoxib concentration (mean ± SD) ([1]; 3X, oral ≥7.2 mg/kg/day, Study Day 17, 0.75 h postdose): 5798.8 ± 3218.0 ng/mL
- plasma robenacoxib concentration (mean ± SD) ([1]; 3X, oral ≥7.2 mg/kg/day, Study Day 17, 4 h postdose): 108.5 ± 67.8 ng/mL
- plasma robenacoxib concentration (mean ± SD) ([1]; 3X, oral ≥7.2 mg/kg/day, Study Day 31, 4 h postdose): 94.7 ± 69.7 ng/mL
- plasma robenacoxib concentration (mean ± SD) ([1]; 3X, oral ≥7.2 mg/kg/day, Study Day 34, 4 h postdose): 84.2 ± 30.3 ng/mL
- plasma robenacoxib concentration (mean ± SD) ([1]; 3X, oral ≥7.2 mg/kg/day, Study Day 37, 0.75 h postdose): 6460.0 ± 3839.3 ng/mL
- plasma robenacoxib concentration (mean ± SD) ([1]; 3X, oral ≥7.2 mg/kg/day, Study Day 37, 4 h postdose): 123.2 ± 121.7 ng/mL
- oral administration vs subcutaneous injection, average concentrations ([1]; all dose groups): higher average 0.75 h concentrations and lower average 4 h concentrations
- accumulation of robenacoxib ([1]; comparing concentrations 4 h post oral administration (Days 4, 7, 11, 14, 17, 31, 34, 37)): no accumulation observed after Day 4; also recorded: No robenacoxib accumulation was observed
- robenacoxib dissolved [2]: approximately 93%
- injection site observations [3]: transient, fluid-filled, painless enlargements at the injection sites that disappeared over a period of 72 hours
- microscopic findings at injection sites [3]: minimal subcutaneous inflammatory cell infiltration
- QT duration vs control (RR interval as covariate) (cats [4]): No prolongation
- QT interval, average post-treatment (cats [4]): approximately 160 ms
- QT interval, average pretest values (cats [4]): approximately 140 ms
- mean baseline heart rate (cats [4]): approximately 305 bpm
- mean heart rate post treatment (cats [4]): 260-277 bpm
- qualitative assessment of electrocardiograms (cats [4]): qualitatively normal
- Emesis (cats [5]): observed once on Days 36 and 37
- duration of injection site edema post injection (cats [5]): up to 120 hours
- injection site erythema, heat or pain (cats [5]): no signs
- time to resolution of injection site changes (cats [5]): ≤ 72 h
- occurrence of injection site edema vs control animals (cats [5]; sc): significantly higher
- Robenacoxib-related microscopic findings (cats [6]): increased injection site subacute/chronic inflammation
- absolute liver weight increase compared to control (cats [6]): 14%
- severity of injection site inflammation observations (cats [6]): minimal
